Test results as given in patent US20100160442A1, “FORMULATIONS FOR CANCER TREATMENT” (priority 2006, published 2010).
Converted amounts (≈) assume the structure as drawn. Like-named read-outs stand apart in the source and are kept apart here.

Assay: Equilibrium solubility of 4-iodo-3-nitrobenzamide, overnight at 25° C., measured by HPLC
Type: physicochemical
Settings: for solubility: thermodynamic from solid, read-out: Solubility
Experimental: Excess 4-iodo-3-nitrobenzamide (“BA”) was equilibrated overnight (>16 hr) at 25° C. in purified water, 0.01M HCl (pH2), 0.01M NaOH ([…]), and 0.9% NaCl. Following dilution, the solubility of the drug was measured by HPLC.
Excess 4-iodo-3-nitrobenzamide was equilibrated overnight (>16 hr) at 25° C. in solutions of purified water containing various concentrations of cyclodextrins including hydroxypropyl-β-cyclodextrin (Kleptose® from Roquette) (HPBCD), sulfobutyl ether-β-cyclodextrin (Captisol® from Cyclex) (SBEBCD), and Hyroxypropyl-γ-cyclodextrin (Cavamax W8® from Wacker) (HPGCD). Following dilution, the solubility of the drug was measured by HPLC.
Excess 4-iodo-3-nitrobenzamide was equilibrated overnight (>16 hr) at 25° C. in purified water containing various concentrations of the surfactants: polyethylene sorbitan monooleate (Polysorbate 80), polyoxyethylene sorbitan monolaurate (Polysorbate 20), Cremophor EL (BASF), Cremophor RH40 (BASF), Poloxamer 118, and Solutol HS-15 (BASF). Following dilution, the solubility of the drug was measured by HPLC.
Excess 4-iodo-3-nitrobenzamide was equilibrated overnight (>16 hr) at 25° C. in solutions of purified water containing various co-solvents including ethanol, glycofurol, glycerin formal, benzyl alcohol, N,N, dimethylacetamide (DMA), polyethylene glycol (PEG) 400, and propylene glycol. Following dilution, the solubility of the drug was measured by HPLC.
Excess 4-iodo-3-nitrobenzamide was equilibrated overnight (>16 hr) at 25° C. in solutions in purified water containing mixtures of solubilizers. Following dilution, the solubility of the drug was measured by HPLC.

- solubility (0.01 M HCl, 25 °C, pH 2, simulated gastric fluid, 0.01 M HCl (pH 2), 25° C.): 179 µg/mL (≈ 0.613 mM)
- solubility (0.01 M NaOH, 25 °C, pH 13, aqueous buffer, 0.01M NaOH (pH 13), 25° C.): 181 µg/mL (≈ 0.62 mM)
- solubility (0.9% NaCl, 25 °C, saline or isotonic, 0.9% NaCl, 25° C.): 164 µg/mL (≈ 0.562 mM)
- solubility (5% DMA (N,N-dimethylacetamide) in purified water, 25 °C, aqueous with cosolvent or surfactant or cyclodextrin, DMA 5%, 25° C.): 1390 µg/mL (≈ 4.76 mM)
- Enhancement (5% DMA/5% EtOH/40% PEG 400): 44.0
- solubility (5% DMA/5% EtOH/40% PEG 400 in purified water, 25 °C, aqueous with cosolvent or surfactant or cyclodextrin, 5% DMA/5% EtOH/40% PEG 400, 25° C.): 8010 µg/mL (≈ 27.4 mM)
- Enhancement (5% DMA/25% Solutol HS-15): 45.7
- solubility (5% DMA/25% Solutol HS-15 in purified water, 25 °C, aqueous with cosolvent or surfactant or cyclodextrin, 5% DMA/25% Solutol HS-15, 25° C.): 8320 µg/mL (≈ 28.5 mM)
- Enhancement (5% DMA/40% PEG 400): 33.2
- solubility (5% DMA/40% PEG 400 in purified water, 25 °C, aqueous with cosolvent or surfactant or cyclodextrin, 5% DMA/40% PEG 400, 25° C.): 6050 µg/mL (≈ 20.7 mM)
- Enhancement (5% Polysorbate 20/5% ETOH): 12.1
- solubility (5% Polysorbate 20/5% ethanol in purified water, 25 °C, aqueous with cosolvent or surfactant or cyclodextrin, 5% Polysorbate 20/5% ETOH, 25° C.): 2210 µg/mL (≈ 7.57 mM)
- Enhancement (5% Polysorbate 20/5% glycofurol): 11.0
- solubility (5% Polysorbate 20/5% glycofurol in purified water, 25 °C, aqueous with cosolvent or surfactant or cyclodextrin, 5% Polysorbate 20/5% glycofurol, 25° C.): 2000 µg/mL (≈ 6.85 mM)
- Enhancement (5% Polysorbate 80/5% ETOH): 12.3
- solubility (5% Polysorbate 80/5% ethanol in purified water, 25 °C, aqueous with cosolvent or surfactant or cyclodextrin, 5% Polysorbate 80/5% ETOH, 25° C.): 2230 µg/mL (≈ 7.64 mM)
- Enhancement (5% Polysorbate 80/5% glycofurol): 13.1
- solubility (5% Polysorbate 80/5% glycofurol in purified water, 25 °C, aqueous with cosolvent or surfactant or cyclodextrin, 5% Polysorbate 80/5% glycofurol, 25° C.): 2390 µg/mL (≈ 8.18 mM)
- Enhancement (5% Polysorbate 80/10% EtOH/40% PEG 400): 6.7
- solubility (5% glucose (5GW), 25 °C, saline or isotonic, 5% Glucose (5GW), 25° C.): 173 µg/mL (≈ 0.592 mM)
- solubility (10% Cremophor EL in purified water, 25 °C, aqueous with cosolvent or surfactant or cyclodextrin, Cremophor EL 10%, 25° C.): 3500 µg/mL (≈ 12 mM)
- solubility (10% Cremophor RH40 in purified water, 25 °C, aqueous with cosolvent or surfactant or cyclodextrin, Cremophor RH40 10%, 25° C.): 3370 µg/mL (≈ 11.5 mM)
- Enhancement (10% EtOH/10% Polysorbate 80): 11.5
- Enhancement (10% EtOH/40% PEG 400): 18.8
- Enhancement (10% EtOH/40% PEG 400,/5% Benzyl Alcohol): 17.1
- solubility (10% HPBCD in purified water, 25 °C, aqueous with cosolvent or surfactant or cyclodextrin, HPBCD 10% in purified water, 25° C.): 4860 µg/mL (≈ 16.6 mM)
- solubility (10% Poloxamer 118 in purified water, 25 °C, aqueous with cosolvent or surfactant or cyclodextrin, Poloxamer 118 10%, 25° C.): 430 µg/mL (≈ 1.47 mM)
- solubility (10% Polysorbate 20 in purified water, 25 °C, aqueous with cosolvent or surfactant or cyclodextrin, Polysorbate 20 10%, 25° C.): 3660 µg/mL (≈ 12.5 mM)
- solubility (10% Polysorbate 80 in purified water, 25 °C, aqueous with cosolvent or surfactant or cyclodextrin, Polysorbate 80 10%, 25° C.): 3120 µg/mL (≈ 10.7 mM)
- Enhancement (10% glycofurol, 40% PEG 400): 33.6
- solubility (20% HPBCD in purified water, 25 °C, aqueous with cosolvent or surfactant or cyclodextrin, HPBCD 20% in purified water, 25° C.): 9960 µg/mL (≈ 34.1 mM)
- solubility (25% HPBCD in purified water, 25 °C, aqueous with cosolvent or surfactant or cyclodextrin, HPBCD 25% in purified water, 25° C.): 11500 µg/mL (≈ 39.3 mM)
- solubility (25% HPGCD in purified water, 25 °C, aqueous with cosolvent or surfactant or cyclodextrin, HPGCD 25% in purified water, 25° C.): 272 µg/mL (≈ 0.931 mM)
- solubility (25% SBEBCD in purified water, 25 °C, aqueous with cosolvent or surfactant or cyclodextrin, SBEBCD 25% in purified water, 25° C.): 11000 µg/mL (≈ 37.8 mM)
- solubility (25% Solutol HS 15 in purified water, 25 °C, aqueous with cosolvent or surfactant or cyclodextrin, Solutol HS 15 25%, 25° C.): 6550 µg/mL (≈ 22.4 mM)
- solubility (30% Solutol HS 15 in purified water, 25 °C, aqueous with cosolvent or surfactant or cyclodextrin, Solutol HS 15 30%, 25° C.): 7460 µg/mL (≈ 25.5 mM)
- solubility (40% HPBCD in purified water, 25 °C, aqueous with cosolvent or surfactant or cyclodextrin, HPBCD 40% in purified water, 25° C.): 12800 µg/mL (≈ 43.7 mM)
- solubility (50% PEG 400 in purified water, 25 °C, aqueous with cosolvent or surfactant or cyclodextrin, PEG 400 50%, 25° C.): 7660 µg/mL (≈ 26.2 mM)
- Enhancement (50% Polysorbate 20/50% EtOH): 89.6
- solubility (50% Polysorbate 20/50% EtOH, 25 °C, organic solvent or mixture, 50% Polysorbate 20/50% EtOH, 25° C.): 16300 µg/mL (≈ 55.9 mM)
- Enhancement (50% Polysorbate 80/50% EtOH): 102.2
- solubility (50% Polysorbate 80/50% EtOH, 25 °C, organic solvent or mixture, 50% Polysorbate 80/50% EtOH, 25° C.): 18600 µg/mL (≈ 63.7 mM)
- solubility (50% ethanol in purified water, 25 °C, aqueous with cosolvent or surfactant or cyclodextrin, Ethanol 50%, 25° C.): 5720 µg/mL (≈ 19.6 mM)
- solubility (50% glycerin formal in purified water, 25 °C, aqueous with cosolvent or surfactant or cyclodextrin, Glycerin Formal 50%, 25° C.): 3450 µg/mL (≈ 11.8 mM)
- solubility (50% glycofurol in purified water, 25 °C, aqueous with cosolvent or surfactant or cyclodextrin, Glycofurol 50%, 25° C.): 9850 µg/mL (≈ 33.7 mM)
- solubility (50% propylene glycol in purified water, 25 °C, aqueous with cosolvent or surfactant or cyclodextrin, Propylene glycol 50%, 25° C.): 2240 µg/mL (≈ 7.67 mM)
- solubility (100% DMA (N,N-dimethylacetamide), 25 °C, organic solvent or mixture, DMA 100%, 25° C.): 71500 µg/mL (≈ 245 mM)
- solubility (100% Polysorbate 20, 25 °C, organic solvent or mixture, Polysorbate 20 100%, 25° C.): 10800 µg/mL (≈ 37.2 mM)
- solubility (100% Polysorbate 80, 25 °C, organic solvent or mixture, Polysorbate 80 100%, 25° C.): 16900 µg/mL (≈ 57.8 mM)
- solubility (100% benzyl alcohol, 25 °C, organic solvent or mixture, Benzyl alcohol 100%, 25° C.): 15500 µg/mL (≈ 53.1 mM)
Compound: NC(=O)c1ccc(I)c([N+](=O)[O-])c1 [BA, 4-iodo-3-nitrobenzamide]
